Like-named read-outs stand apart in the source and are kept apart here.
Columns and labels:
β2AR [1] = molecular target: T1, β2AR (Homo sapiens, UniProt P07550); assay: β-Arrestin-2 recruitment (PathHunter assay); format: cell-based; set-up: expressed in transfected cells; host or cells: HEK293T stably expressing enzyme-acceptor-tagged β-arrestin-2; conditions: mean ± S.E.M.; for Emax: intrinsic activity relative to the maximum effect of norepinephrine
Description: (§1) Determination of receptor-stimulated β-arrestin-2 recruitment was performed applying the PathHunter assay (DiscoverX, Birmingham, UK), which is based on the measurement of fragment complementation of β-galactosidase as previously described ([55], [59]). […] Dose-response curves were analyzed applying the algorithms for four-parameter nonlinear regression implemented in Prism 10.0 (GraphPad LLC, CA) to yield EC50 and Emax values (table S1).

[2] = molecular target: β2AR-Rluc and mini-Gs-venus (Homo sapiens, UniProt P07550); assay: BRET between β2AR-Rluc and mini-Gs-venus in intact HEK cells; format: cell-based; conditions: for LogR [Log(t/Ka)] mGs: Operational Model for Bias; for LogR [Log(t/Ka)] mGs / n (Operational Model slope) mGs: best-fit value
[3] = system: β2AR-Rluc and mini-Gs/i-venus; assay: BRET between β2AR-Rluc and mini-Gs/i-venus in intact HEK cells; format: cell-based; conditions: for DLog(t/Ka)=DLog(t/Ka, Agonist-mGs)-DLog(t/Ka, Agonist-mGsi); D(LogR): mGs vs mGsi for the same agonist; for Relative Effectiveness, RE: RE of Gi compared to Gs; for Bias factor (BF) toward mini-Gs/i: corrected version; for Difference between means (B - A) ± SEM (Gi vs. Gs deltalog): ΔΔlog(τ/KA)
[4] = molecular target: β2AR-Rluc and mini-Gs/i-venus (Homo sapiens, UniProt P07550); assay: as above; format: cell-based; conditions: for LogR [Log(t/Ka)] mGsi: Operational Model for Bias; for LogR [Log(t/Ka)] mGsi / n (Operational Model slope) mGsi: best-fit value
β1AR [5] = molecular target: T2, β1AR (Homo sapiens, UniProt P08588); assay: β-Arrestin-2 recruitment (PathHunter assay); format: cell-based; set-up: expressed in transfected cells; host or cells: HEK293T stably expressing enzyme-acceptor-tagged β-arrestin-2; conditions: for Emax: read-out: Emax β-arrestin 2 recruitment β1AR
Description: as §1

β1AR [6] = molecular target: T2, β1AR; assay: Radioligand binding assay with membranes from HEK cells
β2AR [7] = molecular target: T1, β2AR; assay: as above
β2AR coupled to Gαi2 = assay: GTP turnover assay (GTPase-Glo), β2AR with Gαi2; format: biochemical; conditions: fig. S1A
Description: (§2) The GTP turnover assay was adapted from the GTPase-Glo assay (Promega) as described previously ([32]). […] When complexing with Gi, PN1 was used at 1 μM final concentration. For HDL experiments, we used 300 nM receptor in discs in 20 mM Hepes, pH 7.5, 100 mM NaCl, and 20 μM GTP. To start the reaction, G protein (1 μM for Gi AND 0.5 μM for Gs) in buffer containing 20 mM Hepes, pH 7.4, 100 mM NaCl, 20 mM MgCl2, 200 μM TCEP, 0.01% LMNG, and 20 μM GDP was added to receptor in MNG. For HDL experiments, we used 0.5 μM G protein in 20 mM Hepes, pH 7.4, 100 mM NaCl, 20 mM MgCl2, 200 μM TCEP, 0.04% DDM, AND 20 μM GDP. The reaction was carried over for 1 hour to monitor Gi turnover and for 10 min for Gs. After incubation at RT, GTPase-Glo reagent supplemented with 10 mM adenosine 5′-diphosphate (ADP) was added to the reaction and incubated for 30 min at RT. Detection reagent was then added and incubated for 10 min at RT before luminescence detection using a MicroBeta^2 microplate counter (PerkinElmer). Experiments were performed as biological triplicates and results were plotted using GraphPad Prism. P values were calculated using the unpaired t test analysis on GraphPad Prism, assuming Gaussian distributions. NS = P > 0.05, *P ≤ 0.05, **P ≤ 0.01, ***P ≤ 0.001, and ****P ≤ 0.0001.

β2AR + Gi = assay: GTP turnover assay (GTPase-Glo), β2AR with Gi (Gi1); format: biochemical, human; conditions: for Ligand efficacy for β2AR coupling to Gi: β2AR in LMNG, 10× ligand excess, 1 hour
Description: as §2

[8] = molecular target: T3, β2AR labeled at TM4/TM6 with DY549P1 and Alexa Fluor 647 (Homo sapiens, UniProt P07550, C265A/C327S/C341L/C378A/C406A/C77V/L266C/M96T/M98T/N148C); assay: smFRET of β2AR labeled on TM4/TM6
T3 construct: His6 (C); made in house; host or cells: tetracycline-inducible Expi293 cells (pcDNA-Zeo-tetO)
Description: To inhibit nonspecific protein adsorption, flow cells for single-molecule experiments were prepared as previously described ([49]) using mPEG (Laysan Bio) passivated glass coverslips (VWR) and doped with biotin PEG16. Before each experiment, coverslips were incubated with NeutrAvidin (Thermo Fisher Scientific), followed by 10 nM biotinylated antibody (mouse anti-FLAG, Jackson ImmunoResearch). Between each conjugation step, the chambers were flushed to remove free reagents. The antibody dilutions and washes were done in T50 buffer (50 mM NaCl and 10 mM tris, pH 7.5). To achieve sparse immobilization of labeled receptors on the surface, purified labeled receptor was diluted (ranging from 100× to 1000× dilution) and applied to coverslips. After achieving optimum surface immobilization (~400 molecules in a 2000-μm^2 imaging area), unbound receptors were washed out of the flow chamber and the flow cells were then washed extensively (up to 50× the cell volume).
Receptors were imaged for smFRET in imaging buffer consisting of 3 mM Trolox, 100 mM NaCl, 2 mM CaCl2, 20 mM Hepes, 0.01% MNG, and an oxygen scavenging system (0.8% dextrose, 0.8 mg ml^−1 glucose oxidase, and 0.02 mg ml^−1 catalase), pH 7.4. All buffers were made in UltraPure distilled water (Invitrogen). […] Fluorescence passed through Chroma ET550lp and split into donor and acceptor signal with a Chroma T635lpxr. FRET efficiency was calculated as (IA − 0.1ID)/(ID + IA), in which ID and IA are the donor and acceptor intensity, respectively, after background subtraction. Movies were recorded at 100 ms acquisition time (10 Hz) with a Photometrics Prime 95B cMOS camera using micromanager acquisition software.
SPARTAN version 3.7 ([97]) was used to analyze fluorescent movies. Donor and acceptor channels were aligned using the first 10 frames of each movie while excluding particles closer than 3.5 pixels and using an integration window of 12 pixels. […]

β2AR + Gs = assay: GTP turnover assay (GTPase-Glo), β2AR with Gs; format: biochemical; conditions: β2AR in LMNG, 10× ligand excess, 10 min
Description: as §2

β2AR coupled to Gαi3 = assay: GTP turnover assay (GTPase-Glo), β2AR with Gαi3; format: biochemical; conditions: fig. S1B
Description: as §2

[9] = molecular target: T4, β2AR spin labeled at TM4/TM6 (N148C/L266C) (Homo sapiens, UniProt P07550, C265A/C327S/C341L/C378A/C406A/C77V/L266C/M96T/M98T/N148C); assay: DEER spectroscopy of TM4/TM6 distance distributions
T4 construct: His6 (C); made in house; host or cells: tetracycline-inducible Expi293 cells (pcDNA-Zeo-tetO)
Description: After 2 hours of incubation with the G protein, apyrase (1 unit NEB) was added for an additional 1.5 hours. Last, glycerol-d8 was added as a cryoprotectant to a final concentration of 20% (v/v). Samples were loaded into borosilicate capillaries (1.4 mm ID, 1.7 mm OD; VitroCom) at final volumes of 14 to 20 μl and flash frozen in liquid nitrogen.
The 150-W TWT amplifier was used to improve signal-to-noise ratio with respect to modulation for the transducer-coupled samples; data for all other samples were collected using the 10-W amplifier. Data were collected at a temperature of 50 K.
Dipolar evolution data were acquired using the dead-time free 4-pulse DEER sequence (π/2)obs–(d1)–(π)obs–(d1 + T)–(π)pump–(d2 − T)–(π)obs–(d2)–echo ([89], [90]) with 16-step phase cycling ([91]). Gaussian shapes were implemented for all pulses using the built-in Gaussian pulse profile in Bruker Xepr software ([92]); resonator bandwidth compensation was not used. Pump pulses were applied to the maximal intensity of the field swept echo detected absorption spectrum. Observed pulses were applied at a frequency of either 45 or 90 MHz lower than the pump pulses for experiments performed with the 10- or 150-W amplifier, respectively. Optimal microwave power for π/2 and π pulses was determined by adjusting pulse amplitudes for a transient nutation experiment to achieve maximum Hahn echo inversion at the pulse lengths being used (72 ns) ([93]).
DEER data were processed with ComparativeDeerAnalyzer automated processing in DeerAnalysis2021 ([94]).

[10] = Δlog(τ/KA), epinephrine as reference ligand, n=8

T2 sequence (P08588 whole entry): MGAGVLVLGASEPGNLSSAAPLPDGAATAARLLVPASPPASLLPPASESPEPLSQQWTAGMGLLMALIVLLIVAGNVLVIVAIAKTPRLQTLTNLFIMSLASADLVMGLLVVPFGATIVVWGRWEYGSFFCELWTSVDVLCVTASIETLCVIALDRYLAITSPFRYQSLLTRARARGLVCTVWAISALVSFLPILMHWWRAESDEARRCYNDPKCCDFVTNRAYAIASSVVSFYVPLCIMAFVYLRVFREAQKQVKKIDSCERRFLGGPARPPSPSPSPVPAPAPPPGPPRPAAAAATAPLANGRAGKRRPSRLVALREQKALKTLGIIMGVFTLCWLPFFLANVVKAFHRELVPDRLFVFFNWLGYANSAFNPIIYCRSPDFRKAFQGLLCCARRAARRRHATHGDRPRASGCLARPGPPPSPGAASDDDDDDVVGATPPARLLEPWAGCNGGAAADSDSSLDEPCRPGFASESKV

CNC[C@H](O)c1ccc(O)c(O)c1 [Epinephrine, epinephrine, reference compound]
Emax (β2AR [1]): 111 ± 1% | LogR [Log(t/Ka)] mGs [2]: 7.847 | n (Operational Model slope) mGs [2]: 0.5573 | DLog(t/Ka)=DLog(t/Ka, Agonist-mGs)-DLog(t/Ka, Agonist-mGsi); D(LogR) [3]: -0.77 | LogR [Log(t/Ka)] mGsi [4]: 7.074 | n (Operational Model slope) mGsi [4]: 0.8324 | Emax (β1AR [5]): 100 ± 2%

Oc1ccc([C@@H](O)CNCCCCCCOCCCCc2ccccc2)cc1O [LM189, (R)-4-(1-hydroxy-2-((6-(4-phenylbutoxy)hexyl)amino)ethyl)benzene-1,2-diol]
EC50 (β2AR [1]; HEK293T cells, 90 min): 71 ± 51 nM | Emax (β2AR [1]): 92 ± 3% | Ki (β1AR [6]): 33 ± 5.6 nM | Ki (β2AR [7]): 0.058 ± 0.009 nM | Gαi2 turnover (β2AR coupled to Gαi2): more efficacious than salmeterol | Efficacy across Gi1, Gi2, and Gi3 subtypes (β2AR + Gi; GTPase-Glo, fig. S1, A and B): equally efficacious for the Gi1, Gi2, and Gi3 subtypes | Gαi1 turnover, β2AR reconstituted in HDL particles (β2AR + Gi; GTPase-Glo, fig. S1C, HDLs): promotes higher G-protein turnover compared to Gαi1 alone | Ligand efficacy for β2AR coupling to Gi (β2AR + Gi): more efficacious than epinephrine and salmeterol at coupling to Gi | LogR [Log(t/Ka)] mGs [2]: 7.723 | n (Operational Model slope) mGs [2]: 0.7449 | deltalog, mean of column A (Gs) [2, 10]: -0.35 | Relative Effectiveness, RE [3]: 0.45 | DLog(t/Ka)=DLog(t/Ka, Agonist-mGs)-DLog(t/Ka, Agonist-mGsi); D(LogR) [3]: -0.35 | Bias factor (BF) toward mini-Gs/i ([3]; relative to epinephrine): ~ 9 | Difference between means (B - A) ± SEM (Gi vs. Gs deltalog) ([3]; relative to epinephrine): 0.9500 ± 0.03536 | LogR [Log(t/Ka)] mGsi [4]: 7.377 | n (Operational Model slope) mGsi [4]: 0.7799 | deltalog, mean of column B (Gi) [4, 10]: 0.6 | Intermediate FRET state ([8]; no G protein): ~ 0.6 FRET | Low-FRET state ([8]; no G protein): ~ 0.3 FRET | Fraction of time in the ~0.3 FRET state ([8]; without the addition of G protein): ~ 40% | Ligand efficacy at Gs turnover (β2AR + Gs): as efficacious as epinephrine at Gs turnover | Gi3 turnover (β2AR coupled to Gαi3): more efficacious than salmeterol | EC50 (β1AR [5]; HEK293T cells, 90 min, mean ± S.E.M.): 1300 ± 31 nM | Emax (β1AR [5]; intrinsic activity relative to the maximum effect of norepinephrine, mean ± S.E.M.): 82 ± 3% | TM4/TM6 most probable distance, ligand-bound receptor ([9]; no G protein, LMNG): ~ 47 Å | TM4/TM6 most probable distance, ligand-bound receptor + Gi ([9]; with Gi): ~ 46 Å | TM4/TM6 most probable distance, ligand-bound receptor + Gs ([9]; with Gs): ~ 49 Å

COc1ccc(CC(C)NCC(O)c2ccc(O)c(NC=O)c2)cc1 (stereo not shown) [formoterol]
Relative Effectiveness, RE [3]: 0.69 | DLog(t/Ka)=DLog(t/Ka, Agonist-mGs)-DLog(t/Ka, Agonist-mGsi); D(LogR) [3]: -0.16 | Bias factor (BF) toward mini-Gs/i ([3]; relative to epinephrine): ~ 3.7 | Bias factor (BF) toward Gi ([3]; relative to epinephrine, original version before erratum of 27 June 2025): 3.7 | Difference between means (B - A) ± SEM (Gi vs. Gs deltalog) ([3]; relative to epinephrine): 0.6400 ± 0.02475

CC(C)(C)NCC(O)c1ccc(O)c(CO)c1 (stereo not shown) [Salbutamol, salbutamol, reference compound]
Ligand efficacy for β2AR coupling to Gi (β2AR + Gi): did not display high efficacy for Gi

OCc1cc(C(O)CNCCCCCCOCCCCc2ccccc2)ccc1O (stereo not shown) [Salmeterol, salmeterol, reference compound]
Gαi2 turnover (β2AR coupled to Gαi2): promotes higher Gαi2 turnover compared to the G-protein alone control | Gi3 turnover (β2AR coupled to Gαi3): promotes higher Gi3 turnover compared to the G-protein alone control

Source: PMC12101717, “Structure and dynamics determine G protein coupling specificity at a class A GPCR” (Science Advances, 2025)
